Results published in patent publication US6551793B1, “Carotenoid-associated proteins useful for high carotenoid accumulation and production in plants and other organisms” (Yissum Research Development Company of the Hebrew …, priority 1996, dated 2003).

How the values were obtained:
Assay type in all cases: cell-based, Cucumis sativus
[1] = system: CHRC mRNA; assay: In vitro flower bud culture, Northern blot of CHRC mRNA in corollas
Experimental: (§1) Young flower buds were cultured in vitro in the presence (GA) or the absence (C) of 100 μM GA3 for up to 48 hours. Northern and Western blot analyses of corollas, cultured for the indicated periods of time, were performed. The Northern blots (25 μg total RNA/lane) were hybridized with ^32P-labeled DNA inserts from CHRC (CHRC), […] (Psy), and 18s rDNA (18S). Western blot analysis (bottom panel of A) was performed using antibodies against CHRC protein (25 μg total protein/lane). The results of the CHRC Northern blot analyses are also shown graphically relative to the mRNA level of the untreated corollas at zero time (0) (arbitrary value of 1).
(§2) Flower buds were cultured in the presence of 100 μm GA3 (GA), 100 μg/ml paclobutrazol following 2 hours of pretreatment with 100 μg/ml paclobutrazol (P), 100 μg/ml paclobutrazol +100 μm GA3 following 2 hours of pretreatment with 100 μg/ml paclobutrazol (P/GA), 100 μM ABA (ABA), or no phytohormones (C). Total RNA was extracted from corollas after 2 hours of treatment. Northern blot analyses were performed and probed as described in the legend to FIG. 7.
(§3) Total RNA and protein were extracted from cucumber corollas of flower buds cultured for 6 hours in the presence of 100 μM GA3 (GA), 50 μM CHX following 2 hours of pretreatment with 50 μM CHX (CHX/GA), or no phytohormones (C). Northern (CHRC, Psy, and 18S) and Western (bottom panel) blot analyses were performed as described above.
In FIG. 10, flower buds were cultured for 2 hours without (0) or with various concentrations of GA3. Total RNA was isolated from corollas, and a Northern blot was probed as above. The results of the CHRC Northern blot analyses are also shown graphically relative to the mRNA level of control corollas cultured without GA3 (arbitrary value of 1).
(§4) This example describes plant material and conditions for in vitro flower bud culture. C. sativus L. plants (cultivar Shimahon, obtained from Zeraim Gadera, Israel) were grown under standard greenhouse conditions. In vitro culture of flower buds was performed at 23° C., under constant light from cool white fluorescent lamps with a photosynthetic photon flux density of 80 μmol/m^2 g, as described previously. Briefly, buds at developmental stage 1 (˜8 mm in length, 120 hours before anthesis) were collected and rinsed several times with sterile water. Buds were then placed for 24 hours on a perforated Parafilm (American National Can, Greenwich, Conn.) covering a Petri dish filled with double-distilled sterile water, such that only the bases of the buds were in contact with the liquid. Following equilibration, buds were transferred to a fresh Petri dish (zero time for the experiments) and treated with GA3, ABA, paclobutrazol, or CHX, as specified in the figure legends.
This example describes conditions used for RNA isolation and Northern blot analysis. Total RNA from corollas of cucumber flower buds was isolated as described previously. RNA (15 and 25 μg) was fractionated through a 1.2% formaldehyde gel and transferred to a Hybond-N^− filter (Amersham Corp.). A random priming kit (Boehringer Mannheim) was used to radioactively labeled DNA probes. The blots were hybridized with ^32P-labeled cucumber CHRC cDNA (Vishnevetsky, et al., Plant Journal, 10: 1111-1118 (1996)) and reprobed with melon phytoene synthase (PSY) cDNA (MEL5), provided by D. Grierson of the Nottingham University, UK. The hybridization for analysis of CHRC expression was carried out in 0.263 M Na2HPO4, 7% SDS, […], 1% BSA for 16 hours at 60° C., and the washes were performed in 2×SSC/0.1% SDS at 50° C. followed by 2×SSC/0.1% SDS at 55° C., for 20 minutes each. Hybridization with the MEL5 probe was carried out at 55° C. using the same procedure. Following the hybridization, the blots were washed in 5×SSC/0.1% SDS at 45° C. for 20 minutes followed by 5×SSC/0.1% SDS at 50° C. and 2×SSC/0.1% SDS at 50° C. for 20 minutes each. […]

[2] = system: CHRD; assay: In vitro flower bud culture, Western blot of CHRD in corollas
Experimental: CHRD levels in corollas were analyzed by western blotting (10 μg of total protein per lane) using antibodies against CHRD and horseradish peroxidase anti-rabbit IgG in an enhanced chemiluminescence detection system. FIG. 14B is a Western blot analysis of corollas (50 μg of total protein per lane) cultured for the indicated periods with (+) or without (−) GA3. The blot was decorated with antibodies against CHRD and alkaline phosphatase anti-rabbit 1 gG.
(§5) In FIG. 15A, antibodies against CHRD or CHRC were used in a western blot analysis of CHRD and CHRC levels, respectively, in corollas cultured for 72 hours in the presence (E) or absence (C) of ethylene (50 μg of total protein per lane). In FIG. 15B, flowers were enclosed in aluminum foil in the greenhouse for 3 days and CHRD levels in etiolated (D) and control, nonetiolated (L) corollas were analyzed by western blotting (50 μg of total protein per lane).
as §4
CHRD protein was isolated from Cucumis sativus as a minor component, immunologically characterised and analyzed in terms of the regulation of its expression by developmental signals using methods and conditions described above for CHRC. […] Carotenoids are known to accumulate in dark.

[3] = system: Psy mRNA; assay: In vitro flower bud culture, Northern blot of Psy mRNA in corollas
Experimental: as §1, §2, §3
as §4, with “Following equilibration, buds were transferred to a fresh Petri dish (zero time for the experiments) and treated with GA3, ABA, paclobutrazol, or CHX, as specified in the figure legends.” left out
This example describes conditions used for RNA isolation and Northern blot analysis. […] Autoradiograms were quantified by scanning suitably exposed films in a densitometer (Molecular Dynamics, Sunnyvale, Calif.). The amount of RNA loaded onto the gels was standardized by optical measurement, by quantitation of the ethidium bromide fluorescence of cytoplasmic rRNA. and by the level of hybridization with a DNA fragment coding for cytoplasmic 18S RNA.

[4] = system: CHRC protein; assay: In vitro flower bud culture, Western blot of CHRC protein in corollas
Experimental: as §5, §4

[5] = system: GUS reporter gene expression; assay: Transient expression of reporter gene GUS under CHRC promoter versus 35S CaMV promoter
From the text: FIGS. 1A and 1B show comparative photographs of cucumber flowers petals showing transient expression of the reporter gene GUS using CHRC promoter (FIG. 1A) or known 35S CaMV promoter (FIG. 1B).
The promoter containing CHRC upstream region was about 70% as efficient as the 35S CaMV promoter in cucumber petals and about 60% as efficient in leaves, fruits and stems. The CHRC promoter's efficiency in another representative of the cucurbit family, namely in melon, was similar to the efficiency found in cucumber.
In cucumber-petals, the CHRC upstream region was about 70% as efficient as the 35S CaMV promoter. In leaves, fruits and stems, the CHRC promoter was about 60% as efficient as 35S CaMV. Promoter's efficiency in melon was similar to that observed in cucumber.

[6] = ethylene, corollas cultured for 72 hours
[7] = dose response 1×10^−8 to 1×10^−4 M GA3, 2 hours
[8] = 50 μM CHX with 100 μM GA3, 6 hours

## CC(C)(C)[C@@H](O)[C@@H](Cc1ccc(Cl)cc1)n1cncn1 (racemic) [paclobutrazol]
[1]; 100 μg/ml paclobutrazol after 2 hours of pretreatment, 2 hours of treatment
  Decrease in CHRC mRNA levels relative to control untreated corollas: 4 fold
[2]; flower buds cultured for 72 hours
  CHRD level per unit protein, down-regulation compared with control untreated corollas: 4.8±0.2 times
[3]; 100 μM ABA or 100 μg/ml paclobutrazol, 2 hours of treatment
  Effect on Psy mRNA levels: Neither ABA nor paclobutrazol markedly affected

## C=C [ethylene]
[2]; [6]
  CHRD level per unit protein following treatment: down-regulated
[4]; [6]
  CHRC level in treated corollas versus controls: lower than that in controls

## C=C1C[C@]23C[C@@]1(O)CC[C@H]2[C@@]12C=C[C@H](O)[C@@](C)(C(=O)O1)[C@H]2[C@@H]3C(=O)O [GA3, Gibberellin A3]
[1]; 100 μM GA3, after 20 minutes of treatment
  CHRC mRNA level in treated versus control corollas: approximately twice as high
[1]; 100 μg/ml paclobutrazol + 100 μm GA3 after 2 hours paclobutrazol pretreatment
  CHRC transcript accumulation with exogenous GA3 added to paclobutrazol: up-regulated CHRC transcript accumulation to the level of GA3-treated corollas
[1]; [7]
  Concentration at which CHRC was strongly up-regulated: 10^−5−10^−4 M
  Lowest concentration sufficient to markedly elevate basal CHRC mRNA levels: 10^−7 M
[1]; response to GA3, early time points (data not shown)
  Time to detectable increase in CHRC mRNA level: 10 to 20 min
[2]; GA3, after only 2 hours
  CHRD level in treated versus untreated buds: markedly higher
[2]; GA3, in vitro bud culture, 72 hours
  CHRD accumulation with GA3 in the culture medium: enhanced accumulation
[4]; 100 μM GA3, after 2 hours of treatment
  CHRC per unit of protein in treated versus control corollas: approximately 2.5 times
[3]; GA3 treatment, first 45 hours of corolla development
  Effect on Psy mRNA levels: not affected

## C[C@@H]1C[C@@H]([C@H](O)CC2CC(=O)NC(=O)C2)C(=O)[C@@H](C)C1 [CHX, cycloheximide]
[1]; [8]
  Effect on up-regulation of CHRC mRNA by GA3: did not prevent
[1]; CHX alone
  Effect of CHX alone on CHRC transcript accumulation: did not affect
[4]; [8]
  Effect on increase in CHRC protein levels in GA3-treated buds: successfully abolished
[3]; 50 μM CHX, 6 hours
  Effect on Psy mRNA levels: unaffected

B1: CHRC upstream region: sequenced upstream region of the cucumber CHRC gene with strong promoter activity, SEQ ID NO:10 (nucleic acid, listed as Cucumis sativus)
DNA: AAGCTTTACAAATTAGGGTTACTTTATTCATTTTCATCCATTCTCTTTATTGTTAAATTTTGTACATTTATTCAATAATATTATATGTTTATTACAAATTCTCACTTTCTTATTCATACCTATTCACTCAAGCCTTTACCATCTTCCTTTTCTATTTCAATACTATTTCTACTTCATTTTTCACGTTTTTAACATCTTTCTTTATTTCTTGTCCACTTCGTTTAGGGATGCCTAATGTCCCAAATTTCATCTCTCGTAGTAACACAAAACCAATGTAATGCTACTTCTCTCTACATTTTTAATACAAATAAAGTGAAACAAAATATCTATAAATAAACAAATATATATATTTTGTTAGACGCTGTCTCAACCCATCAATTAAAAAATTTTGTTATATTTCTACTTTACCTACTAAATTTGTTTCTCATATTTACCTTTTAACCCCCACAAAAAAAAATTATAAAAAAGAAAGAAAAAAGCTAAACCCTATTTAAATAGCTAACTATAAGATCTTAAAATTATCCTCATCAGTGTATAGTTTAATTGGTTATTAACTTATAACATTATATATCTATGACATATACTCTCTCCTAGCTATTTCTCACATTTTTTAACTTAAGAAAATAGTCATAACATAGTCTAAAATTCAAACATCCACATGCTCTAATTTGATTAACAAAAAGTTAGAAATATTTATTTAAATAAAAAAGACTAATAAATATATAAAATGAATGTTCATACGCAGACCCATTTAGAGATGAGTATGCTTTCACATGCTGAGATTATTTTCAAAACTAAGGTTGTAGCAATATTAAATCAATAAAATTATTATAAATAACAAAATTAACCTGCTCGTGTTTGCTGTATATGGGAGGCTACAAAATAAATTAAACTAAAGATGATTATGTTTTAGACATTTTTTCTATCTGTATTAGTTTATACATATTAATTCAGGAGCTGCACAACCCAATTCTATTTTCGTTCCTTGGTGGCTGGGTTTCTCACAAGGTTCAATAGTCAATATTAGGTTTTATTGGACTTTTAATAGTATCAAACAAATCTATGTGTGAACTTAAAAATTGTATTAAATATTTAGGGTAACCTGTTGCCGTTTTTAGAATAATGTTTCTTCTTAATACACGAAAGCGTATTGTGTATTCATTCATTTGGCGCCTCACATGCTTCGGTTGGCTCGCTTTAGTCTCTGCCTTCTTTGTATATTGTACTCCCCCTCTTCCTATGCCACGTGTTCTGAGCTTAACAAGCCACGTTGCGTGCCATTGCCAAACAAGTCATTTTAACTTCACAAGGTCCGATTTGACCTCCAAAACAACGACAAGTTTCCGAACAGTCGCGAAGATCAAGGGTATAATCGTCTTTTTGAATTCTATTTCTCTTTATTTAATAGTCCCTCTCGTGTGATAGTTTTTAAAAGATTTTTAAAACGTAGCTGCTGTTTAAGTAAATCCCAGTCCTTCAGTTTGT
[5]; cucumber leaves, fruits and stems
  Efficiency relative to the 35S CaMV promoter: about 60%
[5]; cucumber petals
  Efficiency relative to the 35S CaMV promoter: about 70%
